The text below walks through data of paper PMC5540273, “Progress towards a public chemogenomic set for protein kinases and a call for contributions” (PLoS ONE, 2017).

One assay concerns the target T1, ANKK1 (Homo sapiens, UniProt Q8NFD2).
T1 sequence (Q8NFD2 1-765): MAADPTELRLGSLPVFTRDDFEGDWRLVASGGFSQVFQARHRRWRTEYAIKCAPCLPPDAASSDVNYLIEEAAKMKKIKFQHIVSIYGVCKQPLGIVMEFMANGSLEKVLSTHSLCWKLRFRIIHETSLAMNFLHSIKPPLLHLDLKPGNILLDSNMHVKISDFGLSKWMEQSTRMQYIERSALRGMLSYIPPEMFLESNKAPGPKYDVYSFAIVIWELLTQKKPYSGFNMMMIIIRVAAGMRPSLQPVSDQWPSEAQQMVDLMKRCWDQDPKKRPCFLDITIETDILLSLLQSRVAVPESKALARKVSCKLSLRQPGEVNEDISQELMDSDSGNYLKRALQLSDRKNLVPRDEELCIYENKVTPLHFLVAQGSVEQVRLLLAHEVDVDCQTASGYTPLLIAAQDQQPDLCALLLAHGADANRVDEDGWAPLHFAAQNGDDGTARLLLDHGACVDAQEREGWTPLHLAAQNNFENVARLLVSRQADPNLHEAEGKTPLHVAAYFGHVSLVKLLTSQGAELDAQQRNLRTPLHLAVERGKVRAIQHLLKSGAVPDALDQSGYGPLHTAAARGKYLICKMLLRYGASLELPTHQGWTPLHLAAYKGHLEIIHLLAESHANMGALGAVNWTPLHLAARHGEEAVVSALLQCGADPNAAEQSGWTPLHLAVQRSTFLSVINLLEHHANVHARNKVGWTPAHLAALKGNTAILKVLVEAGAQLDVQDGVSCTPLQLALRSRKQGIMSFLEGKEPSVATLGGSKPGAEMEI
In words: KINOMEscan competition binding. Particulars: read-out: %Inh ANKK1.

For another assay, the target named is CAMKK2 (Homo sapiens, UniProt Q96RR4). Put plainly: KINOMEscan competition binding. Particulars: read-out: %Inh CAMKK2.
CAMKK2, sequence (Q96RR4 whole entry): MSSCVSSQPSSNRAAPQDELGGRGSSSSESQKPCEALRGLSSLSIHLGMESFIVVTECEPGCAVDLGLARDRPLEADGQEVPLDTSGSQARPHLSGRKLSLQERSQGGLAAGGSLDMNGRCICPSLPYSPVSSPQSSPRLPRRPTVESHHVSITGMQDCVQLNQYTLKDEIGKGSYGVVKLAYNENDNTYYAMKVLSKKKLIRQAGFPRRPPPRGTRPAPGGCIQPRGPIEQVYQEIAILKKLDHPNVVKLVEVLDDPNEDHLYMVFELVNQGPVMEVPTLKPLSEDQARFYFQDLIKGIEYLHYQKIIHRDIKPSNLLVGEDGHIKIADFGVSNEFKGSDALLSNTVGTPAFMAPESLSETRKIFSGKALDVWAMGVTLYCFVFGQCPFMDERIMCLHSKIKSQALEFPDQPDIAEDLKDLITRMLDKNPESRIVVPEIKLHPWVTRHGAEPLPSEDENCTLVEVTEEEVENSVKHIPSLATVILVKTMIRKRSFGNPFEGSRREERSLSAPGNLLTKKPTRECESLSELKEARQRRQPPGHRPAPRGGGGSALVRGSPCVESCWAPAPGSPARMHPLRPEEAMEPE
The target of the next assay is DYRK1B (Homo sapiens, UniProt Q9Y463). Put plainly: KINOMEscan competition binding. The settings on record: read-out: %Inh DYRK1B.
A further assay deals with CAMK2G (Homo sapiens, UniProt Q13555). In words: KINOMEscan competition binding. Particulars: read-out: %Inh CAMK2G.
CAMK2G, sequence (Q13555 whole entry): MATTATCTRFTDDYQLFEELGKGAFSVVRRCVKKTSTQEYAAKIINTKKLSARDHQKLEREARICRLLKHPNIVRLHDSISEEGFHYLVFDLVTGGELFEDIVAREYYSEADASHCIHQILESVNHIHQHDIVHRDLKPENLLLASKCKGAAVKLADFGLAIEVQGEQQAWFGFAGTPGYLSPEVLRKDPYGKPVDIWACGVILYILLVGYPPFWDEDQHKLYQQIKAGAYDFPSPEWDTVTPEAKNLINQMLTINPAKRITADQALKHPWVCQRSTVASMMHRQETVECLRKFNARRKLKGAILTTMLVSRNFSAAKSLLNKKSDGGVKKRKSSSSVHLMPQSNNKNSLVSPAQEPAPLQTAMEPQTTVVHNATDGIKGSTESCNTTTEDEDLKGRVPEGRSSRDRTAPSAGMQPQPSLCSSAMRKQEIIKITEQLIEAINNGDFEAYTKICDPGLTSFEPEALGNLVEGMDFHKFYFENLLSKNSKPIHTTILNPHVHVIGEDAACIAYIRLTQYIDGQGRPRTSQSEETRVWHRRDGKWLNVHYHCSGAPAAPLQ
Another assay has as its target FGR (Homo sapiens, UniProt P09769). In words: KINOMEscan competition binding. The settings on record: read-out: %Inh FGR.
A further assay deals with LIMK1 (Homo sapiens, UniProt P53667). In words: KINOMEscan competition binding. Particulars: read-out: %Inh LIMK1.
LIMK1, sequence (P53667 whole entry): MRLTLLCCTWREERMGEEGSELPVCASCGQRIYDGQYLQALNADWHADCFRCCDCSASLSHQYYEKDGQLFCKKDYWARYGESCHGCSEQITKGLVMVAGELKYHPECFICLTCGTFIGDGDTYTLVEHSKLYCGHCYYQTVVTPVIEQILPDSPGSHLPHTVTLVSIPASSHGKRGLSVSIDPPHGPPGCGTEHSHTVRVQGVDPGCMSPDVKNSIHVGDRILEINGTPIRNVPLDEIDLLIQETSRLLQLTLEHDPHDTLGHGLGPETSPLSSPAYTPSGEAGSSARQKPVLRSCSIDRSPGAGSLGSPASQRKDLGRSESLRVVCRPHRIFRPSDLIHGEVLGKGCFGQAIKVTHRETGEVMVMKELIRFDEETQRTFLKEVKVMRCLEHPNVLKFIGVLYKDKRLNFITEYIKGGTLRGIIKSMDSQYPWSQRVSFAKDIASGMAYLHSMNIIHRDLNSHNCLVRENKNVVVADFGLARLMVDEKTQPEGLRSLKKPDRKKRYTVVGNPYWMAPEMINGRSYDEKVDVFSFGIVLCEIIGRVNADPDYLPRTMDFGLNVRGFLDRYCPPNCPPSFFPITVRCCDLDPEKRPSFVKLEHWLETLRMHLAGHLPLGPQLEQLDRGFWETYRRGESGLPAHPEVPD
The next assay concerns the target ALK (Homo sapiens, UniProt Q9UM73). Put plainly: KINOMEscan competition binding. The settings on record: read-out: %Inh ALK.
Another assay has as its target ERK2 (Homo sapiens, UniProt P28482). Put plainly: KINOMEscan competition binding. Particulars: read-out: %Inh ERK2.
The target in a further assay is GSK3A (Homo sapiens, UniProt P49840). In words: KINOMEscan competition binding. The settings on record: read-out: %Inh GSK3A.
GSK3A, sequence (P49840 whole entry): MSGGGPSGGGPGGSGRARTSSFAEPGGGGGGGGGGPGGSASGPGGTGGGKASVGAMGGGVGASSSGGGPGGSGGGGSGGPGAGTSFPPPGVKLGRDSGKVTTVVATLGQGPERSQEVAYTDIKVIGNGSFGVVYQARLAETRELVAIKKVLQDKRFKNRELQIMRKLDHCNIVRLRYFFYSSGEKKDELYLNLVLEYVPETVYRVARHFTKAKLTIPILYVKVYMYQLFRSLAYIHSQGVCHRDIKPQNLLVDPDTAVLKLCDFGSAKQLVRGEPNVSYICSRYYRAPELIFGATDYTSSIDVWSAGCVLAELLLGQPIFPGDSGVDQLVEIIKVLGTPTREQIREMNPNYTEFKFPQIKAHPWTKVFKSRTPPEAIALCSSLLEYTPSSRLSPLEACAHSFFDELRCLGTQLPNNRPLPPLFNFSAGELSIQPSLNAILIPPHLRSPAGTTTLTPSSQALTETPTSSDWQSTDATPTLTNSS
The target of the next assay is CDK11 (Homo sapiens, UniProt Q9BWU1). Put plainly: KINOMEscan competition binding. The settings on record: read-out: %Inh CDK11.
The next assay deals with FRK (Homo sapiens, UniProt P42685). Put plainly: KINOMEscan competition binding. Particulars: read-out: %Inh FRK.
FRK, sequence (P42685 whole entry): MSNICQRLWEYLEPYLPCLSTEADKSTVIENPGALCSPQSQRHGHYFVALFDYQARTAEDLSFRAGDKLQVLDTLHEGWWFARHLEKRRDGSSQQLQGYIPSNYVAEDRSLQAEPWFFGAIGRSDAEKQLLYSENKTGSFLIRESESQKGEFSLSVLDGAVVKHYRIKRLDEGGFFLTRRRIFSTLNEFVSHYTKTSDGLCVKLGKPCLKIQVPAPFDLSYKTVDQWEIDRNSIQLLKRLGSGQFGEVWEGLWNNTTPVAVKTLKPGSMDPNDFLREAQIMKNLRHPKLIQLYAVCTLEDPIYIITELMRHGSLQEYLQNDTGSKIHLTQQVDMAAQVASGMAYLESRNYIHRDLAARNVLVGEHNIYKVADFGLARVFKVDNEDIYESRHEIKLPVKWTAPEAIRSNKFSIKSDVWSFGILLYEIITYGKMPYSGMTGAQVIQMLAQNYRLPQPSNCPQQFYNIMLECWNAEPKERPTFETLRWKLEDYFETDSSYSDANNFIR
The target of the next assay is DMPK2 (Homo sapiens, UniProt Q6DT37). In words: KINOMEscan competition binding. Particulars: read-out: %Inh DMPK2.
Assay [1] relates to 392 wild-type human kinases. Put plainly: KINOMEscan assay panel, PKIS2 profiling. Type of assay: binding. The settings on record: 1 μM. The source says:
Since the assay was only run in singlicate it was important to follow up actives with Kd determinations.

In another assay the target is KIT (Homo sapiens, UniProt P10721). In words: KINOMEscan competition binding. The settings on record: read-out: %Inh KIT.
KIT, sequence (P10721 26-976): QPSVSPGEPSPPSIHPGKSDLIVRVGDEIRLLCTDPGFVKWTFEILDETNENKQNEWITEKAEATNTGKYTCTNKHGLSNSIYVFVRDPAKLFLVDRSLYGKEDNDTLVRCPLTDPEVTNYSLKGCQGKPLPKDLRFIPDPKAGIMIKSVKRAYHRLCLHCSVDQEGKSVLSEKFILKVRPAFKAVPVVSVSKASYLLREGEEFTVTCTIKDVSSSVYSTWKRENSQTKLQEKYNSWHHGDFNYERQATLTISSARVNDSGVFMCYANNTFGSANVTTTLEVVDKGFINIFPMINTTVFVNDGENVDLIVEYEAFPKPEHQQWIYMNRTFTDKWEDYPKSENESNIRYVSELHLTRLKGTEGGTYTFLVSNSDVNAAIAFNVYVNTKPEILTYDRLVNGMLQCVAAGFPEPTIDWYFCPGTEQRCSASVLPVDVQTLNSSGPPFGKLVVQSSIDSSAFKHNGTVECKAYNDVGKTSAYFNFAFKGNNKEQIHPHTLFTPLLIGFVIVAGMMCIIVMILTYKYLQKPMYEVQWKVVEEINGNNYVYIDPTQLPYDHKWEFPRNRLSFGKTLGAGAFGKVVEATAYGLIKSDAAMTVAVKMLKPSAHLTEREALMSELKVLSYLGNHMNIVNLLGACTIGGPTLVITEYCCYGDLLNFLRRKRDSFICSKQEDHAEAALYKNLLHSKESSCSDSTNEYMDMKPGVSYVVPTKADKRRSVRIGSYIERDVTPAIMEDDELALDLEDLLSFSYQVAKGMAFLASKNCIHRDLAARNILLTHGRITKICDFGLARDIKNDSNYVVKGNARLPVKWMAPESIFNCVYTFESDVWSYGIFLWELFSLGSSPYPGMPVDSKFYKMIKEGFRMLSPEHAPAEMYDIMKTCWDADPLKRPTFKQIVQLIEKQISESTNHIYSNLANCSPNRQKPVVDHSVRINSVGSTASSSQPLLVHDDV
The target of another assay is T2, EPHB3 (Homo sapiens, UniProt P54753).
T2 sequence (P54753 34-998): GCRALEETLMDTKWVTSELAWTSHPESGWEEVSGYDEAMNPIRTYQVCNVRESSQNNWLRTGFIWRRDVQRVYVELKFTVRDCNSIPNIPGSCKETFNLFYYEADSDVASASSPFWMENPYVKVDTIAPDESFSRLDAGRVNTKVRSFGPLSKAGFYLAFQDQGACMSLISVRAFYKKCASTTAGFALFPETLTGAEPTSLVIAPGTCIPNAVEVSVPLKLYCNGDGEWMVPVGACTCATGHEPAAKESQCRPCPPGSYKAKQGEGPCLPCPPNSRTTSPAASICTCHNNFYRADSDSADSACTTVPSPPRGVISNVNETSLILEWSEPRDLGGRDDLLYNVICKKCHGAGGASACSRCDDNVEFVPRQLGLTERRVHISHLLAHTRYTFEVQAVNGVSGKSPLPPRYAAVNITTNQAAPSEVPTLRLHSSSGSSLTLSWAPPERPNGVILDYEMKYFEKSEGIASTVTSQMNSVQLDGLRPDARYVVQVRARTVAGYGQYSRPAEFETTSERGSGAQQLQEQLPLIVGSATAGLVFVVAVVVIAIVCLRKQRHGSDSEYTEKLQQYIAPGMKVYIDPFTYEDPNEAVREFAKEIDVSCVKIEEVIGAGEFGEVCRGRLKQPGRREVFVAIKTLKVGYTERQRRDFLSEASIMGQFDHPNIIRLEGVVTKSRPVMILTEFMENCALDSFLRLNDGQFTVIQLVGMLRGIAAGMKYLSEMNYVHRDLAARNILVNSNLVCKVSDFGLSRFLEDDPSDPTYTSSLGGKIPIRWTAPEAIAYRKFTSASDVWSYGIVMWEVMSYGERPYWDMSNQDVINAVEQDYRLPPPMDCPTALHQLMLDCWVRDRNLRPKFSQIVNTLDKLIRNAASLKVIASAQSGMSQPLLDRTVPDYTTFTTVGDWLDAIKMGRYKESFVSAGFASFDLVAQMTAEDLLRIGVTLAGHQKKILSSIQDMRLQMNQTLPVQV
Put plainly: KINOMEscan competition binding. The settings on record: read-out: %Inh EPHB3.

FGR, sequence (P09769 whole entry): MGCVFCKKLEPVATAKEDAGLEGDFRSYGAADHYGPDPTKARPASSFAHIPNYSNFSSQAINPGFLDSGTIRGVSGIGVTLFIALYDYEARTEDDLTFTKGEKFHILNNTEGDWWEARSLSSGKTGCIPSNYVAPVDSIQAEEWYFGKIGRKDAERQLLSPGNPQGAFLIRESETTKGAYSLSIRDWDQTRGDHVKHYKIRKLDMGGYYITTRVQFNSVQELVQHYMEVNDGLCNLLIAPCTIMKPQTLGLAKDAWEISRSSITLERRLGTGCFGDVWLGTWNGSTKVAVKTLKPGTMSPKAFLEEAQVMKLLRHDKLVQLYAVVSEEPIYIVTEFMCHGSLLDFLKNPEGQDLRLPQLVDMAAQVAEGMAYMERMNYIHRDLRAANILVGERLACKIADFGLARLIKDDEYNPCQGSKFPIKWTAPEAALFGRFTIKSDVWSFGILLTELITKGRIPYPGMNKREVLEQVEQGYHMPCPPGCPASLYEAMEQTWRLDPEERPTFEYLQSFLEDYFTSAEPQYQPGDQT
ERK2, sequence (P28482 whole entry): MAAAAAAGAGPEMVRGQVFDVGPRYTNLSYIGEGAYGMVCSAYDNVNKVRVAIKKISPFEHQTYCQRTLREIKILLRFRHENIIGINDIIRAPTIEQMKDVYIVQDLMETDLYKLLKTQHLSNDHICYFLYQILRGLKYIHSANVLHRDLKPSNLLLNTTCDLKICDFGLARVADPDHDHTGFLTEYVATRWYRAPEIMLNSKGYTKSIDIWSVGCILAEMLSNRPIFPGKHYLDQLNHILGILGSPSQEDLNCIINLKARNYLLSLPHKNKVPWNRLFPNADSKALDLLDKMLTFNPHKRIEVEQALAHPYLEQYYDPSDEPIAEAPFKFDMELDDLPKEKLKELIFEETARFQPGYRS

Turning to `O=c1cc(N2CCOCC2)nc2n(Cc3cccc(Cl)c3Cl)c(C3CC3)nn12` [UNC10225469A], the inhibition at 1 µM stood at 0% on ANKK1; 8% at CAMKK2; 0% on DYRK1B; 0% on CAMK2G; 9% at FGR; 9% at LIMK1. Besides, the inhibition at 1 µM on ALK was found to be 0%; at ERK2, 11%; on GSK3A it was 4%; at CDK11 it was 0%; at FRK, 0%; at DMPK2, 0%. Also, the inhibition at 1 µM at KIT stood at 0%; at EPHB3 it was 7%. In assay [1], the “>70 (number of kinases with %Inh >70)” value is on record as 3. Moreover, the “>80 (number of kinases with %Inh >80)” value in assay [1] is 3. For the same compound, in assay [1], the “>90 (number of kinases with %Inh >90)” value was 2.

For the compound `COc1cccc(OC)c1C(=O)Nc1cccc(-c2nn3ccccc3c2-c2ccnc(Nc3cccc(F)c3)n2)c1` [UNC10225310A], the inhibition at 1 µM on ANKK1 is 93.2%; at CAMKK2 it was 0%; on DYRK1B, 24%; at CAMK2G it was 0%; at FGR, 23%; on LIMK1, 31%. The inhibition at 1 µM on ALK came to 0%; on ERK2, 6%; on GSK3A it was 24%; on CDK11, 0%; on FRK it was 16%; on DMPK2, 84%. The values for the inhibition at 1 µM on KIT and on EPHB3 were 90.9% and 8%, respectively. Moreover, the “>70 (number of kinases with %Inh >70)” value in assay [1] is reported as 19. Besides, the “>80 (number of kinases with %Inh >80)” value in [1] was 19. In assay [1], the “>90 (number of kinases with %Inh >90)” value is 12.

Turning to `CS(=O)(=O)Cc1ccc(Nc2nccc(-c3c(-c4cccc(NC(=O)C5CCCCC5)c4)nn4ncccc34)n2)cc1` [UNC10225159A], the inhibition at 1 µM on ANKK1 worked out at 0%; at CAMKK2, 0%; at DYRK1B it was 0%; at CAMK2G, 0%; on FGR, 27%; at LIMK1 it was 22%. Further, the inhibition at 1 µM was 29% on ALK; 0% on ERK2; 0% on GSK3A; 0% at CDK11; 4% at FRK; 35% on DMPK2. Besides, the inhibition at 1 µM is 88% on KIT and 5% on EPHB3. Moreover, the “>70 (number of kinases with %Inh >70)” value in assay [1] amounted to 12. For the same compound, in assay [1], the “>80 (number of kinases with %Inh >80)” value is on record as 10. Also, the “>90 (number of kinases with %Inh >90)” value in assay [1] is listed as 5.

On to `Cc1ccc(NC(=O)Nc2cccc(C(F)(F)F)c2)cc1` [UNC10225187A], for which the inhibition at 1 µM is 0% on ANKK1; 19% at CAMKK2; 0% at DYRK1B; 4% on CAMK2G; 0% at FGR; 0% on LIMK1. Further, the inhibition at 1 µM was found to be 0% at ALK; 0% at ERK2; 0% at GSK3A; 20% at CDK11; 0% on FRK; 0% at DMPK2. In addition, the inhibition at 1 µM on KIT was 91.4%; on EPHB3 it was 0%. Besides, the “>70 (number of kinases with %Inh >70)” value in [1] amounted to 4. In addition, the “>80 (number of kinases with %Inh >80)” value in assay [1] stood at 4. The “>90 (number of kinases with %Inh >90)” value in assay [1] was found to be 3.

Turning to `Cn1cc(-c2cnc(N)c3c(-c4ccc5c(c4)CCN5C(=O)Cc4ccccc4)csc23)cn1` [UNC10225012A], the inhibition at 1 µM was 0% on ANKK1; 19% at CAMKK2; 0% at DYRK1B; 13% at CAMK2G; 75% on FGR; 49% on LIMK1. The inhibition at 1 µM at ALK worked out at 0%; at ERK2 it was 0%; on GSK3A it was 5%; on CDK11, 18%; at FRK, 38%; at DMPK2, 81%. For the same compound, the inhibition at 1 µM on KIT is 100%; on EPHB3, 4%. Also, in assay [1], the “>70 (number of kinases with %Inh >70)” value came out at 42. The “>80 (number of kinases with %Inh >80)” value in assay [1] amounted to 36. The “>90 (number of kinases with %Inh >90)” value in assay [1] came out at 27.
